Experimental data from article PMC11238198, “Rejuvenation of Meropenem by Conjugation with Tilapia Piscidin-4 Peptide Targeting NDM-1 Escherichia coli” (ACS Omega, 2024).
No end group written: not given here.

Experiments:
A. baumannii 2982 = experiment: microbe, parasite or virus in culture; assay type: cell-based, Acinetobacter baumannii; details: Mueller Hinton broth, 50 μL of 1 × 10^6 CFU/mL + 50 μL sample, 37 °C, 16–20 h, three independent replicates, each in triplicate
Protocol: (§1) E. coli 8–8, A. baumannii 2982, and S. aureus 13–1 were procured from the Bioresource Collection and Research Center (BCRC), Taiwan. NDM-1-positive E. coli BAA 2452 was procured from ATCC. All strains were cultured in Mueller Hinton broth (MHB). The concentration of bacteria was identified by the absorbance at OD600. The colony forming units (CFU) corresponding to different OD600 values were identified by plating on the Mueller Hinton agar (MHA) plate.
(§2) Antibacterial analysis was performed according to a standard protocol.[32] Overnight cultures of test bacteria were prepared and freshly subcultured. Briefly, 50 μL of 1 × 10^6 CFU/mL bacterial cells was treated with 50 μL of peptide or conjugate at different concentrations in a 96-well plate. The plates were incubated at 37 °C for 16–20 h. The lowest concentration of peptide/conjugate showing no growth was considered the minimum inhibitory concentration (MIC). To identify the MIC (MBC), 5 μL of incubated suspensions from growth-free wells was plated onto MHA and incubated overnight at 37 °C. The lowest concentration of peptide/conjugate showing no growth on the MHA plate was considered to be the MBC. The experiments were performed in three independent replicates, each in triplicate.

NDM E. coli BAA 2452 [1] = experiment: microbe, parasite or virus in culture; assay type: cell-based, Escherichia coli; details: for MIC: NDM-1-positive MDR strain, Mueller Hinton broth, 37 °C, 16–20 h, three independent replicates, each in triplicate
Protocol: as §1, §2

NDM E. coli BAA 2452 [2] = experiment: microbe, parasite or virus in culture; assay type: cell-based; details: Escherichia coli, BAA2452; 5 μL from growth-free wells plated onto MHA, overnight at 37 °C; three independent replicates, each in triplicate
Protocol: as §1, §2

S. aureus 13–1 = experiment: microbe, parasite or virus in culture; assay type: cell-based; details: Mueller Hinton broth, 50 μL of 1 × 10^6 CFU/mL + 50 μL sample, 37 °C, 16–20 h, three independent replicates, each in triplicate
Protocol: as §1, §2

E. coli 8–8 = assay type: cell-based, Escherichia coli; details: Mueller Hinton broth, 50 μL of 1 × 10^6 CFU/mL + 50 μL sample, 37 °C, 16–20 h; three independent replicates, each in triplicate
Protocol: as §1, §2

RBCs = assay type: cell-based, Human
Protocol: Human RBCs were used to examine the hemolytic profiles of the peptides and conjugates. The RBCs were washed three times with PBS and centrifuged at 1000g. Then, 50 μL of a 2% RBC suspension was added to 50 μL of peptide/conjugate solution at different concentrations. The mixture was incubated at 37 °C for 1 h. The incubated mixture was centrifuged, and hemolysis was assessed by measuring the absorbance of the supernatant at 540 nm.

CCD966-SK cells = assay type: cell-based, human; details: 16 µM
Protocol: RAW 264.7 murine macrophage cells, CCD966-SK human fibroblast cells, and HaCaT human keratinocytes were procured from BCRC, Taiwan. RAW264.7 and HaCaT cells were cultivated in DMEM supplemented with 10% FBS, streptomycin (100 μg/mL), and penicillin (100 U/mL) at 37 °C and 5% CO2. CCD966-SK were cultivated in MEM with 0.1 mM nonessential amino acids with 10% FBS, streptomycin (100 μg/mL), and penicillin (100 U/mL) at 37 °C and 5% CO2. In vitro cytotoxicity of the TP4-Meropenem conjugates was evaluated with an alamarBlue assay. Briefly, 5 × 10^4 RAW264.7 cells/well or 5 × 10^3 CCD966-SK or 1 × 10^4 HaCaT cells/well were seeded in 96-well plates for 24 h and then treated with different concentrations of peptide/conjugate. Controls included 0.1% Triton-X-treated cells and cells in a culture medium. After 24 h of treatment, the cells were washed and incubated with 90 μL of DMEM and 10 μL of alamarBlue reagent for 2 h. The absorbances at 570 and 600 nm were measured using a Spectra Max i3 (Molecular Devices, CA). Cell viability was calculated using the formula as described in the protocol. The LDH assay was carried out using the cytotoxicity detection kit PLUS according to a previously described protocol.[33]

`C[C@@H](O)[C@H]1C(=O)N2C(C(=O)O)=C(S[C@@H]3CN[C@H](C(=O)N(C)C)C3)[C@H](C)[C@H]12` [Meropenem] was tested, and the MIC (A. baumannii 2982; Acinetobacter baumannii, 2982, read-out: minimum inhibitory concentration (MIC) A. baumannii 2982) was > 32 µM, the MIC (NDM E. coli BAA 2452 [1]; Escherichia coli, BAA2452) was > 64 µM and the MIC (NDM E. coli BAA 2452 [1]) was >64 µM. The MBC (NDM E. coli BAA 2452 [2]) was > 64 µM and the MIC (S. aureus 13–1; Staphylococcus aureus, read-out: minimum inhibitory concentration (MIC) S. aureus 13–1) was 0.25 µM.

With D-Tilapia piscidin 4 [D-TP4] the “minimum inhibitory concentration (MIC) A. baumannii 2982” value (A. baumannii 2982) was 2 to 4 µM, the “minimum inhibitory concentration (MIC) E. coli 8–8” value (E. coli 8–8) was 2 to 4 µM and the “minimum inhibitory concentration (MIC) S. aureus 13–1” value (S. aureus 13–1) was 2 to 4 µM.

With “FIHHIIGGLFSAGKAIHRLIRRRRR [L-TP4, Tilapia piscidin-4] [listing 1 of 2 here]” the “MIC NDM E. coli BAA 2452” value (NDM E. coli BAA 2452 [1]; BAA 2452) was 4 to 8 µM.

For “FIHHIIGGLFSAGKAIHRLIRRRRR [L-TP4, Tilapia piscidin-4] [listing 2 of 2 here]”, the “hemolysis (% of the total cells) at 4 μM” value (RBCs; 4 µM) was 44.4 ± 4.3% and the “hemolysis (% of the total cells) at 8 μM” value (RBCs; 8 µM) was 84.1 ± 6.2%.

In the case of “FIHHIIGGLFSAGKAIHRLIRRRRR [TP4, Tilapia piscidin-4]”, the “cell viability, CCD966-SK” value (CCD966-SK cells) is reported as 23.9 ± 1.2%.
